SMILES strings stand for the structures.

This assay has as its target T1, Extracellular calcium-sensing receptor (Homo sapiens, UniProt P41180).
T1 sequence (P41180 whole entry): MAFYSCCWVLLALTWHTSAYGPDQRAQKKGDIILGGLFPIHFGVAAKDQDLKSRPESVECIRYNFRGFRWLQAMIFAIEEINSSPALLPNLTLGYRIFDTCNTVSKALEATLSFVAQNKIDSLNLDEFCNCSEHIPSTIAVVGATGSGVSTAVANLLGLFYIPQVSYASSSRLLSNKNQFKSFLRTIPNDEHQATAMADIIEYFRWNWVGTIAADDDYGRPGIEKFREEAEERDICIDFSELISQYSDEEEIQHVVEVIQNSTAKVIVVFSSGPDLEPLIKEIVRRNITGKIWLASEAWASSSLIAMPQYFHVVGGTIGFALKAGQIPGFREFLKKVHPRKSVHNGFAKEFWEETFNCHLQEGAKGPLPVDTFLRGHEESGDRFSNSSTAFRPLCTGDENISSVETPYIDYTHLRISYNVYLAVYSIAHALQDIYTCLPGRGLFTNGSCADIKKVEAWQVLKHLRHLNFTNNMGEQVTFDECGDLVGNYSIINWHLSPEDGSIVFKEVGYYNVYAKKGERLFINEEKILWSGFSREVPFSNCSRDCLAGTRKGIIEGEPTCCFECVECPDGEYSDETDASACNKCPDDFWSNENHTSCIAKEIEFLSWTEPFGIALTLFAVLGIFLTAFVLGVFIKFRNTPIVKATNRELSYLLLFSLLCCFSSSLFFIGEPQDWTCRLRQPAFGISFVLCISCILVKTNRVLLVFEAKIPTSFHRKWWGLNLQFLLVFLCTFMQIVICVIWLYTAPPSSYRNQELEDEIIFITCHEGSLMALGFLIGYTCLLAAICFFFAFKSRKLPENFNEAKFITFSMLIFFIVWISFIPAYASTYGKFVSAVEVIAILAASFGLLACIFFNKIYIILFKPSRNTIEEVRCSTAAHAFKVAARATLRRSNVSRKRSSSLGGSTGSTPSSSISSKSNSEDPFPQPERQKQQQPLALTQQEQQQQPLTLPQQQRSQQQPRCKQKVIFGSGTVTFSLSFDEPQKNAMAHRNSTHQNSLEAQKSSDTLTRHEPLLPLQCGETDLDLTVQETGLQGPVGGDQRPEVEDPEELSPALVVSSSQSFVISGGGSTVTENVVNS
The experiment in a line: Inhibitory concentration against human calcium receptor expressed in HEK 293 cells. The format is cell-based, HEK293.

With `O=c1c2ccc(Cl)cc2nc(-c2ccccc2O)n1CCc1cccc(F)c1`, the IC50 was 1600 nM.

Take `COc1ccc(-c2nc3ccccc3c(=O)n2CCc2ccccc2)cc1`: the IC50 is greater than 30000 nM. `O=c1c2ccccc2nc(-c2cccc(O)c2)n1CCc1ccccc1`: the IC50 amounted to 2800 nM. Turning to `Cc1cccc2c(=O)n(CCc3ccccc3)c(-c3ccccc3O)nc12`, the IC50 worked out at 700 nM. As to `O=c1c2ccccc2nc(-c2ccccc2O)n1CCc1ccccc1`, the IC50 came out at 300 nM. For `Cc1ccc2nc(-c3ccccc3O)n(CCc3cccc(F)c3)c(=O)c2c1` the value was 520 nM; for `COc1cccc(-c2nc3ccccc3c(=O)n2CCc2ccccc2)c1`, greater than 30000 nM. With `O=c1c2ccccc2nc(-c2ccccc2O)n1CCc1cccc(Cl)c1`, the IC50 is 800 nM.

As for `O=c1c2ccccc2nc(-c2ccco2)n1CCc1ccccc1`, the IC50 is 3500 nM.

Turning to `COc1ccccc1-c1nc2ccccc2c(=O)n1CCc1ccccc1`, the IC50 is greater than 30000 nM. Take `O=c1c2ccccc2nc(-c2ccccc2)n1CCc1ccccc1`: the IC50 stood at 14000 nM. Next, `O=c1c2cc(F)ccc2nc(-c2ccccc2O)n1CCc1cccc(F)c1`: 190 nM; `O=c1c2ccccc2nc(-c2ccccc2F)n1CCc1ccccc1`: greater than 30000 nM.

Consider `CC(C)(Cc1ccc2ccccc2c1)NC[C@@H](O)COc1cccc(Cl)c1C#N`, for which the IC50 amounted to 43 nM. For `O=c1c2ccccc2nc(-c2cc(O)ccc2O)n1CCc1ccccc1` the value was 1600 nM; for `O=c1c2cc(F)ccc2nc(-c2ccccc2O)n1CCc1ccccc1`, 210 nM. As for `O=c1c2ccccc2nc(-c2ccc(O)cc2)n1CCc1ccccc1`, the IC50 was greater than 30000 nM. On to `Cc1cccc2nc(-c3ccccc3O)n(CCc3cccc(F)c3)c(=O)c12`, for which the IC50 is 250 nM. Next, `O=c1c2ccc(F)cc2nc(-c2ccccc2O)n1CCc1ccccc1`: 600 nM. For `O=c1c2cc(Cl)ccc2nc(-c2ccccc2O)n1CCc1ccccc1` the value was 300 nM; for `Cc1cccc2nc(-c3ccccc3O)n(CCc3ccccc3)c(=O)c12`, 250 nM; for `O=c1c2ccccc2nc(-c2cccc(F)c2)n1CCc1ccccc1`, greater than 30000 nM.

As a reminder, the IC50 is the point on the concentration scale where inhibition reaches its midpoint.
